Molecular target: T1, Recombinant Human ENPP-2/Autotaxin (Homo sapiens, UniProt Q13822)
T1 construct: purchased R&D systems 5255-EN
Experiment: LysoPLD activity measurement (autotaxin enzyme inhibition, choline release, TOOS reagent)
Format: biochemical
Conditions: LysoPLD inhibitory activity; substrate 14:0 LysoPC; absorbance at 555 nm
Outline: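 Autotaxin lysoPLD activity was read as choline released from 14:0 LysoPC, detected by TOOS reagent absorbance. Compound was preincubated 30 min, then substrate diluted to 300 μM was added and the reaction ran 90 minutes at 37° C. Controls contained 1% DMSO.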

IC50 [nM] | SMILES
10 to 100 | CC1(C)OCc2cc(-n3c(=O)n(C4(c5cccc(C(=O)O)c5F)CC4)c4ccc(Cl)cc43)ccc21 [Example 253, 3-(1-(5-chloro-3-(1,1-dimethyl-1,3-dihydroisobenzofuran-5-yl)-2-oxo-2,3-dihydro-1H-benzo[d]imidazol-1-yl)cyclopropyl)-2-fluorobenzoic acid]
< 10 | CN1CCN(Cc2ccc(-n3c(=O)n(C4(c5cccc(C(=O)O)c5)CC4)c4ccc(Cl)cc43)cc2)C1=O [Example 241, 3-(1-(5-chloro-3-(4-((3-methyl-2-oxoimidazolin-1-yl)methyl)phenyl)-2-oxo-2,3-dihydro-1H-benzo[d]imidazol-1-yl)cyclopropyl)benzoic acid]
< 10 | CN(C)c1ccc(-n2c(=O)n(C3(c4cccc(C(=O)O)c4F)CC3)c3ncc(Cl)cc32)cc1 [Example 229, 3-(1-(6-chloro-1-(4-(dimethylamino)phenyl)-2-oxo-1,2-dihydro-3H-imidazo[4,5-b]pyridin-3-yl)cyclopropyl)-2-fluorobenzoic acid]
10 to 100 | O=C(O)c1cccc(C2(n3c(=O)n(-c4ccc(C(=O)N5CC6(COC6)C5)cc4)c4cc(Cl)cnc43)CC2)c1F [Example 233, 3-(1-(1-(4-(2-oxa-6-azaspiro[3.3]heptane-6-carbonyl)phenyl)-6-chloro-2-oxo-1,2-dihydro-3H-imidazo[4,5-b]pyridin-3-yl)cyclopropyl)-2-fluorobenzoic acid]
< 10 | O=C(O)c1cc(F)cc(C2(n3c(=O)n(-c4ccc(N5CC6(COC6)C5)cc4)c4cc(Cl)ccc43)CC2)c1 [Example 191, 3-(1-(3-(4-(2-oxa-6-azaspiro[3.3]heptan-6-yl)phenyl)-5-chloro-2-oxo-2,3-dihydro-1H-benzo[d]imidazol-1-yl)cyclopropyl)-5-fluorobenzoic acid]
< 10 | O=C(O)c1cccc(C2(n3c(=O)n(-c4ccc(C5(CO)CC5)cc4)c4cc(Cl)ccc43)CC2)c1 [Example 238, 3-(1-(5-chloro-3-(4-(1-(hydroxymethyl)cyclopropyl)phenyl)-2-oxo-2,3-dihydro-1H-benzo[d]imidazol-1-yl)cyclopropyl)benzoic acid]
< 10 | O=C(O)c1cccc(C2(n3c(=O)n(-c4ccc(CC5COC5)cc4)c4cc(Cl)ccc43)CC2)c1 [Example 240, 3-(1-(5-chloro-3-(4-(oxetan-3-ylmethyl)phenyl)-2-oxo-2,3-dihydro-1H-benzo[d]imidazol-1-yl)cyclopropyl)benzoic acid]
< 10 | O=C(O)c1cccc(C2(n3c(=O)n(-c4ccc(N5CCOCC5)cc4)c4cc(C(F)(F)F)ccc43)CC2)c1 [Example 207, 3-(1-(3-(4-morpholinophenyl)-2-oxo-5-(trifluoromethyl)-2,3-dihydro-1H-benzo[d]imidazol-1-yl)cyclopropyl)benzoic acid]
< 10 | CCC(=O)N1CCC(c2ccc(-n3c(=O)n(C4(c5cc(F)cc(C(=O)O)c5)CC4)c4ccc(Cl)cc43)cc2)CC1 [Example 235, 3-(1-(5-chloro-2-oxo-3-(4-(1-propionylpiperidin-4-yl)phenyl)-2,3-dihydro-1H-benzo[d]imidazol-1-yl)cyclopropyl)-5-fluorobenzoic acid]
< 10 | O=C(O)c1cc(F)cc(C2(n3c(=O)n(-c4ccc(C(=O)N5CC6(CCOCC6)C5)cc4)c4cc(Cl)cnc43)CC2)c1 [Example 275, 3-(1-(1-(4-(7-oxa-2-azaspiro[3.5]nonane-2-carbonyl)phenyl)-6-chloro-2-oxo-1,2-dihydro-3H-imidazo[4,5-b]pyridin-3-yl)cyclopropyl)-5-fluorobenzoic acid]
< 10 | O=C(O)c1cc(F)cc(C2(n3c(=O)n(-c4ccc(C5(O)CCC5)cc4)c4cc(Cl)ccc43)CC2)c1 [Example 257, 3-(1-(5-chloro-3-(4-(1-hydroxycyclobutyl)phenyl)-2-oxo-2,3-dihydro-1H-benzo[d]imidazol-1-yl)cyclopropyl)-5-fluorobenzoic acid]
< 10 | CN(C)c1ccc(-n2c(=O)n(C3(c4cc(F)cc(C(=O)O)c4)CC3)c3ccc(Cl)cc32)cc1 [Example 188, 3-(1-(5-chloro-3-(4-(dimethylamino)phenyl)-2-oxo-2,3-dihydro-1H-benzo[d]imidazol-1-yl)cyclopropyl)-5-fluorobenzoic acid]
< 10 | CCCn1cc(-c2ccc(-n3c(=O)n(C4(c5cccc(C(=O)O)c5)CC4)c4ncc(Cl)cc43)cc2)cn1 [Example 270, 3-(1-(6-chloro-2-oxo-1-(4-(1-propyl-1H-pyrazol-4-yl)phenyl)-1,2-dihydro-3H-imidazo[4,5-b]pyridin-3-yl)cyclopropyl)benzoic acid]

Continued, compound first:

SMILES | IC50 [nM]
O=C(O)c1cccc(Cn2c(=O)n(-c3ccc4c(c3)OCO4)c3cc(Cl)ccc32)c1 [Example 9, 3-((3-(benzo[d][1,3]dioxol-5-yl)-5-chloro-2-oxo-2,3-dihydro-1H-benzo[d]imidazol-1-yl)methyl)benzoic acid] | 100 to 1000
O=C(O)c1cccc(Cn2c(=O)n(-c3ccc(N4CCN(C(=O)C5CC5)CC4)cc3)c3cc(Cl)ccc32)c1F [Example 140, 3-((5-chloro-3-(4-(4-(cyclopropanecarbonyl)piperazin-1-yl)phenyl)-2-oxo-2,3-dihydro-1H-benzo[d]imidazol-1-yl)methyl)-2-fluorobenzoic acid] | 10 to 100
O=C(O)c1cccc(Cn2c(=O)n(-c3cnn(C4CCOCC4)c3)c3cc(Cl)ccc32)c1 [Example 86, 3-((5-chloro-2-oxo-3-(1-(tetrahydro-2H-pyran-4-yl)-1H-pyrazol-4-yl)-2,3-dihydro-1H-benzo[d]imidazol-1-yl)methyl)benzoic acid] | 100 to 1000
CN(C)C(=O)c1ccc(-n2c(=O)n(C3(c4cccc(C(=O)O)c4F)CC3)c3ccc(Cl)cc32)cc1 [Example 72, 3-(1-(5-chloro-3-(4-(dimethylcarbamoyl)phenyl)-2-oxo-2,3-dihydro-1H-benzo[d]imidazol-1-yl)cyclopropyl)-2-fluorobenzoic acid] | < 10
O=C(O)c1cccc(C2(n3c(=O)n(-c4nc5ccccc5s4)c4cc(Cl)ccc43)CC2)c1F [Example 144, 3-(1-(3-(benzo[d]thiazol-2-yl)-5-chloro-2-oxo-2,3-dihydro-1H-benzo[d]imidazol-1-yl)cyclopropyl)-2-fluorobenzoic acid] | 10 to 100
CN(C)C(=O)c1ccc(-n2c(=O)n(C3(c4cccc(C(=O)O)c4)CC3)c3ccc(Cl)cc32)cc1 [Example 71, 3-(1-(5-chloro-3-(4-(dimethylcarbamoyl)phenyl)-2-oxo-2,3-dihydro-1H-benzo[d]imidazol-1-yl)cyclopropyl)benzoic acid] | < 10
O=C(O)c1cccc(Cn2c(=O)n(-c3ccc(C(=O)N4CCCCC4)cc3)c3cc(Cl)ccc32)c1F [Example 57, 3-((5-chloro-2-oxo-3-(4-(piperidine-1-carbonyl)phenyl)-2,3-dihydro-1H-benzo[d]imidazol-1-yl)methyl)-2-fluorobenzoic acid] | < 10
O=C(O)c1cccc(C2(n3c(=O)n(-c4ccc(N5CC(O)C5)cc4)c4cc(Cl)ccc43)CC2)c1 [Example 159, 3-(1-(5-chloro-3-(4-(3-hydroxyazetidin-1-yl)phenyl)-2-oxo-2,3-dihydro-1H-benzo[d]imidazol-1-yl)cyclopropyl)benzoic acid] | < 10
CCCn1cc(-n2c(=O)n(Cc3cccc(C(=O)O)c3)c3ccc(Cl)cc32)cn1 [Example 84, 3-((5-chloro-2-oxo-3-(1-propyl-1H-pyrazol-4-yl)-2,3-dihydro-1H-benzo[d]imidazol-1-yl)methyl)benzoic acid] | 100 to 1000
O=C(O)c1cccc(C2(n3c(=O)n(-c4ccc(CC(=O)N5CC(O)C5)cc4)c4cc(Cl)ccc43)CC2)c1 [Example 174, 3-(1-(5-chloro-3-(4-(2-(3-hydroxyazetidin-1-yl)-2-oxoethyl)phenyl)-2-oxo-2,3-dihydro-1H-benzo[d]imidazol-1-yl)cyclopropyl)benzoic acid] | < 10
O=C(O)c1cccc(Cn2c(=O)n(-c3ccc(C4=CCOC4)cc3)c3cc(Cl)ccc32)c1F [Example 110, 3-((5-chloro-3-(4-(2,5-dihydrofuran-3-yl)phenyl)-2-oxo-2,3-dihydro-1H-benzo[d]imidazol-1-yl)methyl)-2-fluorobenzoic acid] | 10 to 100
O=C(O)c1cccc(C2(n3c(=O)n(-c4ccc(CC(=O)N5CCC(F)(F)CC5)cc4)c4cc(Cl)ccc43)CC2)c1 [Example 173, 3-(1-(5-chloro-3-(4-(2-(4,4-difluoropiperidin-1-yl)-2-oxoethyl)phenyl)-2-oxo-2,3-dihydro-1H-benzo[d]imidazol-1-yl)cyclopropyl)benzoic acid] | 10 to 100
O=C(O)c1cccc(Cn2c(=O)n(-c3ccc(N4CCOCC4)cc3)c3c(F)c(Cl)ccc32)c1F [Example 51, 3-((5-chloro-4-fluoro-3-(4-morpholinophenyl)-2-oxo-2,3-dihydro-1H-benzo[d]imidazol-1-yl)methyl)-2-fluorobenzoic acid] | < 10
O=C(O)c1cccc(Cn2c(=O)n(-c3ccc(OCC4CC4)cc3)c3cc(Cl)ccc32)c1 [Example 42, 3-((5-chloro-3-(4-(cyclopropylmethoxy)phenyl)-2-oxo-2,3-dihydro-1H-benzo[d]imidazol-1-yl)methyl)benzoic acid] | 100 to 1000
CN(C)c1ccc(-n2c(=O)n(Cc3cccc(C(=O)O)c3)c3ccc(Cl)cc32)nc1 [Example 164, 3-((5-chloro-3-(5-(dimethylamino)pyridin-2-yl)-2-oxo-2,3-dihydro-1H-benzo[d]imidazol-1-yl)methyl)benzoic acid] | 100 to 1000
O=C(O)c1cccc(C2(n3c(=O)n(-c4ccc(C5=CCOCC5)cc4)c4cc(Cl)ccc43)CC2)c1F [Example 122, 3-(1-(5-chloro-3-(4-(3,6-dihydro-2H-pyran-4-yl)phenyl)-2-oxo-2,3-dihydro-1H-benzo[d]imidazol-1-yl)cyclopropyl)-2-fluorobenzoic acid] | < 10
CN(C)C(=O)c1ccc(-n2c(=O)n(C3(c4cccc(C(=O)O)c4)CCC3)c3ccc(Cl)cc32)cc1 [Example 157, 3-(1-(5-chloro-3-(4-(dimethylcarbamoyl)phenyl)-2-oxo-2,3-dihydro-1H-benzo[d]imidazol-1-yl)cyclobutyl)benzoic acid] | < 10

— patent US20260265265A1, “NOVEL BENZIMIDAZOLONE DERIVATIVE COMPOUND AS AUTOTAXIN INHIBITOR” (LG CHEM, LTD., priority 2023, published 2026)
